{
  "source": "paper PMC12196235",
  "about": "“Enhancing the Pharmacological Properties of Triterpenes Through Acetylation: An Anticancer and Antioxidant Perspective” (Molecules, 2025)",
  "key": {"[1]": {"tested_on": "KB (human oral squamous carcinoma)", "details": "MTT assay, data published earlier; cited from earlier work"}, "[2]": {"tested_on": "A-549 (human lung carcinoma)", "experiment": "MTT assay, A-549", "format": "cell-based", "details": "IC50 HDF / IC50 A-549", "procedure": "(§1) All the cell lines and mediums were obtained from the American Type Culture Collection (ATCC) supplied by LGC-Standards (Lomianki, Poland). Human cancer cell lines were cultured as follows: HeLa (human cervix carcinoma) and KB (human oral squamous carcinoma) lines were cultured in DMEM (Dulbecco’s Modified Eagle’s Medium); MCF-7 (human breast carcinoma) and A-549 (human lung carcinoma) were cultured in RPMI 1640 medium; PC-3 (human prostate carcinoma) was cultured in F-12K medium; SKOV-3 (human ovarian cystadenocarcinoma) was cultured in McCoy’s modified medium; HDF (human normal dermal fibroblasts) was cultured in Fibroblast Basal Medium. Each medium was supplemented with 10% fetal bovine serum, 1% L- glutamine and 1% penicillin/streptomycin solution. The cell lines were kept in an incubator at 37 °C.\n(§2) All the tested cell lines (HeLa, KB, MCF-7, A-549, PC-3, SKOV-3 and HDF) were subjected to MTT assay. In short, this assay is based on the reaction between mitochondria enzymes (dehydrogenases) of tested cell lines and 3-(4,5-dimethylthiazol-2-yl)-2,5-diphenyltetrazolium bromide (MTT). The final product of this reaction gives violet formazan crystals. The number of live cells is proportional to the amount of formazan and is represented by the violet dye reagent. The details of the experiments are given in [19]."}, "[3]": {"tested_on": "MCF-7 (human breast carcinoma)", "details": "ref 55; read-out: anticancer IC50 (MCF-7); cited from earlier work"}, "[4]": {"tested_on": "MCF-7 (human breast carcinoma)", "experiment": "MTT assay, MCF-7", "format": "cell-based", "details": "IC50 HDF / IC50 MCF-7", "procedure": "as §1, §2"}, "[5]": {"tested_on": "PC-3 (human prostate carcinoma)", "experiment": "MTT assay, PC-3", "format": "cell-based", "procedure": "as §1, §2"}, "[6]": {"tested_on": "MDA MB-231 (human epithelial adenocarcinoma)", "set-up": "method as in doi:10.1002/slct.201803101", "details": "ref 56; read-out: anticancer IC50 (MDA MB-231); cited from earlier work"}, "[7]": {"tested_on": "KB (human oral squamous carcinoma)", "experiment": "MTT assay, KB", "format": "cell-based", "details": "IC50 HDF / IC50 KB", "procedure": "as §1, §2"}, "[8]": {"tested_on": "A-549 (human lung carcinoma)", "details": "MTT assay, data published earlier, read-out: IC50 (±SD), A-549; cited from earlier work"}, "[9]": {"tested_on": "HDF (human dermal fibroblasts)", "experiment": "MTT assay, normal HDF", "format": "cell-based", "details": "Homo sapiens, Fibroblast, read-out: IC50 (±SD), HDF", "procedure": "as §1, §2"}, "[10]": {"tested_on": "HeLa (human cervical epithelioid carcinoma)", "experiment": "MTT assay, HeLa", "format": "cell-based", "details": "IC50 HDF / IC50 HeLa", "procedure": "as §1, §2"}, "[11]": {"tested_on": "SKOV-3 (human ovarian carcinoma)", "experiment": "MTT assay, SKOV-3", "format": "cell-based", "procedure": "as §1, §2"}, "[12]": {"tested_on": "A-549 (human lung carcinoma)", "details": "ref 56; read-out: anticancer IC50 (A-549); cited from earlier work"}, "[13]": {"tested_on": "MCF-7 (human breast carcinoma)", "details": "MTT assay, data published earlier, read-out: IC50 (±SD), MCF-7; cited from earlier work"}, "CUPRAC antioxidant assay": {"experiment": "CUPRAC antioxidant assay", "details": "calculated from Trolox standard curve", "procedure": "The results are presented as % inhibition of the copper(II) ions and Trolox equivalent calculated from the standard curve (Figure 9) and as % inhibition of the DPPH radical and Trolox equivalent, calculated from the standard curve (Figure 10).\nThe CUPRAC reagent (7.5 mM ethanolic 96% neocuproine solution, 10 mM CuCl2 × H2O solution and an ammonium acetate buffer of pH 7.0) and DPPH reagent (2,2-diphenyl-1-picrylhydrazyl 0.2 mM solution) were applied.\nThe CUPRAC method measures the reducing power of a sample by quantifying its ability to convert the Cu-neocuproine reagent complex to the Cu(I) form. In contrast, the DPPH assay relies on the ability of an antioxidant to donate a hydrogen atom or an electron to the stable DPPH radical, resulting in its reduction and subsequent color change. The results are presented as % inhibition of the copper(II) ions and Trolox equivalent calculated from the standard curve (Figure 9) and as % inhibition of the DPPH radical and Trolox equivalent, calculated from the standard curve (Figure 10). The spectroscopic detection in CUPRAC and DPPH assays was conducted with Synergy H1 Multi-Mode Microplate Reader (BioTek Instruments, Inc., Winooski, VT, USA). The details of the experiments are given in [102]."}, "[14]": {"tested_on": "HeLa (human cervical epithelioid carcinoma)", "details": "ref 56; read-out: anticancer IC50 (HeLa); cited from earlier work"}, "[15]": {"tested_on": "HeLa (human cervical epithelioid carcinoma)", "details": "MTT assay, data published earlier, read-out: IC50 (±SD), HeLa; cited from earlier work"}},
  "note": "Where “and” joins values, the source holds several entries; their conditions need not be identical. Equal values may be shown once. Read-outs that look alike come from different tables or passages of the source.",
  "data": [
    {"smiles": "C=C(C)[C@@H]1CC[C@]2(C)CC[C@]3(C)[C@H](CC[C@@H]4[C@@]5(C)CC[C@H](O)C(C)(C)[C@@H]5CC[C@]43C)[C@@H]12", "note": "[6a, lupeol]", "values": [
      {"measurement": "IC50", "setting": "[1]", "result": 51.2, "unit": "µM"},
      {"measurement": "Selectivity index (SI), A-549", "setting": "[2]", "result": 0.63},
      {"measurement": "IC50", "setting": "[3]", "result": 80, "unit": "µM"},
      {"measurement": "Selectivity index (SI), MCF-7", "setting": "[4]", "result": 0.56},
      {"measurement": "IC50", "setting": "[5]; Homo sapiens, MTT assay, PC-3, read-out: IC50 (±SD), PC-3", "result": 14.5, "unit": "µM"},
      {"measurement": "Selectivity index (SI), PC-3", "setting": "[5]; IC50 HDF / IC50 PC-3", "result": 2.00},
      {"measurement": "IC50", "setting": "[6]", "result": 46.1, "unit": "µM"},
      {"measurement": "Selectivity index (SI), KB", "setting": "[7]", "result": 0.57},
      {"measurement": "IC50", "setting": "[8]", "result": 45.7, "unit": "µM"},
      {"measurement": "IC50", "setting": "[9]", "result": 29, "unit": "µM"},
      {"measurement": "Selectivity index (SI), HeLa", "setting": "[10]", "result": 0.77},
      {"measurement": "IC50", "setting": "[11]; Homo sapiens, SK-OV-3, MTT assay, SKOV-3, read-out: IC50 (±SD), SKOV-3", "result": 14.6, "unit": "µM"},
      {"measurement": "Selectivity index (SI), SKOV-3", "setting": "[11]; IC50 HDF / IC50 SKOV-3", "result": 1.99},
      {"measurement": "IC50", "setting": "[12]", "result": 64.8, "unit": "µM"},
      {"measurement": "IC50", "setting": "[13]", "result": 51.8, "unit": "µM"},
      {"measurement": "Trolox Equivalent, CUPRAC Assay", "setting": "CUPRAC antioxidant assay", "result": "0.136 mg/mL and 0.136 ± 0.00593 mg/mL"},
      {"measurement": "IC50", "setting": "[14]", "result": 31.9, "unit": "µM"},
      {"measurement": "IC50", "setting": "[15]", "result": 37.7, "unit": "µM"}
    ]}
  ]
}
